Assay results from patent publication US9539223B2, “Methods for treating bacterial infections” (Neoculi Pty Ltd., priority 2013, dated 2017).
Values after ≈ are worked out from the molar mass of the structure shown. Values joined by “and” are separate entries in the source; they are usually repeats but may differ in a detail not shown here. Equal entries are not always repeated.

Columns and labels:
S. pneumoniae = assay: MBC, pneumococcal isolates; type: cell-based, Streptococcus pneumoniae; conditions: isolate WCH16
Experimental: [Micro-broth dilutions and 96-well trays are prepared by the following method: 90 μL of 4% LHB: CAMHB is aliquotted into all wells using a multichannel pipette. 90 μl of working antimicrobial stocks were no serial diluted down the tray by a 1:2 dilution. Negative broth controls and dilution control were taken into account when planning the set up of a 96-well tray.] 10 μL of bacterial suspension was then added to the appropriate wells in the 96 well tray. Appropriate positive (no antimicrobial), negative (no antimicrobial or bacteria) and negative dilution (a serial dilution control of antimicrobial and broth) controls were included in each assay. […] The MBC was determined by a 99.95% inhibition of S. pneumoniae, taking into account the dilution factor. MICs and MBCs were determined in quadruplicate and the mode was taken as the representative value. The MIC50, MIC90 and MIC range and MBC50, MBC90 and MBC range were determined according to CLSI standards. The MIC50 and MIC90, or MBC50 and MBC90, are defined by the lowest concentrations which, when all the MICs and MBCs of the isolates are arranged from lowest to highest, inhibited the 50th and 90th percentile of the total amount of isolates, respectively.

[1] = tested on: vancomycin-resistant Enterococcus spp. (VRE); assay: Minimum inhibitory concentration assay (CLSI), VRE isolates; type: cell-based
Experimental: (§1) Minimum inhibitory concentration tests were performed according to CLSI Standards (CLSI 2008). […] The solutions were then serially diluted across the row, leaving 2 columns for positive and negative controls. A bacterial suspension was prepared by adding fresh colonies obtained from an overnight culture on Sheep Blood Agar (SBA) to a 9.1 g/L saline solution. This suspension was adjusted to a concentration of between 4×10^8 and 5×10^8 CFU/mL. Concentration of the suspension was determined by measuring optical density (OD) using a spectrophotometer at a wavelength of 600 nm where the correct concentration was determined to have an optical density of between 1.00 and 1.20. One milliliter of this suspension was added to 9 mL of saline before being added to all wells, excluding the negative control wells, in 10 μL volumes giving a final concentration of between 4×10^5 and 5×10^5 CFU/mL in each well. The tests were then incubated for 24 hours at 37° C. and then assessed both visually and using OD readings from a microplate reader at a wavelength of 600 nm. These tests were performed in duplicate but repeated if discrepancies were observed.
(§2) The minimum inhibitory concentration (MIC) was determined to be the lowest concentration of antibiotic that prevented growth of bacteria both visually and using OD readings. […]

[2] = tested on: Staphylococcus pseudintermedius; assay: MIC testing (CLSI), S. pseudintermedius isolates; type: cell-based
S. aureus KC01 = assay: Kill kinetics assay, S. aureus KC01; type: cell-based, Staphylococcus aureus
Experimental: S. aureus KC01 and E. faecalis USA01, not determined to be MRSA or VRE, respectively, were grown overnight on Columbia SBA at 37° C. A few colonies of bacteria were then suspended in CAMHB (cation-adjusted Mueller Hinton broth) and adjusted to OD600 of 0.08 to 0.10. The bacterial suspension was diluted 1:10. […] The tubes were incubated at 37° C., with constant shaking. In order to determine the number of viable bacteria present at various time points, a 100 μL aliquot was removed from each tube and diluted. Then, 100 μL of each dilution were spread onto colony count agar, in duplicate, and incubated for 48 h at 37° C. After 24 h the numbers of colonies present on each plate were counted and therefore the number of viable bacteria present in the original suspension enumerated. Plates were re-checked after 48 hours.

S. aureus ATCC 29213 = assay: ATP release assay (CellTiter-Glo); type: cell-based, Staphylococcus aureus; conditions: at the MIC ([…] μg/ml), 30 min exposure
Text: The CellTiter-Glo Luminescent Cell Viability Assay (Promega) was utilized to measure the leakage of ATP from bacteria. […] The negative control received 2% DMSO, which represented the final DMSO concentration in each assay. […] Results were expressed as ATP concentration released to the medium (μM).

[3] = tested on: Staphylococcus spp. Strain MK1; assay: Checkerboard synergy study, Staphylococcus spp. MK1; type: cell-based
Experimental: Firstly, the MIC of each antibiotic alone was determined in accordance to CLSI standard guidelines.
According to the checkerboard guidelines, Synergy (S) was defined as an FICI<0.5. No effect (NE) was defined as 0.5<FICI<4. Antagonism (A) was defined as a 4<FICI.

[4] = Visual analysis of solubility in diluents and media; type: physicochemical
[5] = tested on: methicillin-resistant and methicillin-susceptible Staphylococcus aureus; assay: Minimum bactericidal concentration, S. aureus clinical isolates
Text: The MBC was defined as the lowest drug concentration at which 99.95% of the original inoculum was eliminated.

Streptococcus pneumoniae = assay: Minimum inhibitory concentration assay (CLSI), Str. pneumoniae isolates; type: cell-based
Experimental: as §1, §2

S. pneumoniae strain D39 = assay: Micro-broth dilution time kill studies; type: cell-based, Streptococcus pneumoniae
Experimental: Negative dilution controls were subtracted from the median growth value to obtain a suitable indicator of overall bacterial production. The 96-well tray was incubated at 37° C. in 5% CO2 and read every 2 hrs for the first 12 hrs followed by final reads at 24 and 48 hrs at 600 nm.

Which MBC (S. pneumoniae) does the source give for N=C(N/N=C/c1ccc(Cl)cc1)N/N=C/c1ccc(Cl)cc1 [NCL812, 1,2-bis[(E)-(4-chlorophenyl)methylideneamino]guanidine] here?
The MBC was “autolysis”.

What about the MIC50 [1] of the same molecule?
The MIC50 was 4 µg/mL (≈ 12 µM).

And the MIC90 [1]?
Its MIC90 is 4 µg/mL (≈ 12 µM).

What about the MIC50 ([2]; Staphylococcus pseudintermedius, 23 S. pseudintermedius isolates) of the same molecule?
The MIC50 was 2 µg/mL (≈ 5.98 µM).

What about the “susceptibility based on MICs” value ([2]; all 23 isolates (MSSP and MRSP)) of the same molecule?
The value was “susceptible”.

And the “reduction in bacterial numbers from initial numbers” value (S. aureus KC01; 2 h time point)?
Its value is at least 2.5 log10.

And the “reduction in bacterial numbers in comparison to the control” value (S. aureus KC01; 2 h time point)?
The value was over 3 log10.

And the “reduction in bacterial numbers” value (S. aureus KC01; 6 h incubation)?
Its value is at least 2 log10.

What about the “numbers of bacteria compared to the control” value (S. aureus KC01; after 24 h) of the same molecule?
Its value is “not significantly different to the control”.

And the “maximal release of ATP” value (S. aureus ATCC 29213)?
The value was 0.33 µM.

And the MIC ([3]; read-out: NCL812 MIC Alone, Staphylococcus spp. Strain MK1)?
Its MIC is 2 µg/mL.

What about the “NCL812 MIC With Antibiotic” value ([3]; with Penicillin G) of the same molecule?
The value was 2 µg/mL.

What about the “NCL812 MIC With Antibiotic” value ([3]; with Sulfamethoxazole) of the same molecule?
The value was 1 µg/mL and 2 µg/mL.

And the solubility ([4]; DMSO)?
Its solubility is “soluble”.

And the appearance when dissolved ([4]; cation-adjusted Mueller-Hinton II broth (CAMHB))?
Its appearance when dissolved is “cloudy solution”.

And the visual solubility ([4]; diluent CAMHB)?
Its visual solubility is “Turbid”.

What about the visual solubility ([4]; diluent DMSO) of the same molecule?
The visual solubility was “Transparent”.

What about the visual solubility ([4]; diluent PBS) of the same molecule?
Its visual solubility is “Precipitate”.

What about the visual solubility ([4]; media 4% LHB:CAMHB) of the same molecule?
The visual solubility was “Turbid”.

What about the visual solubility ([4]; media 10% horse serum-supplemented broth) of the same molecule?
Its visual solubility is “Precipitate”.

What about the MBC range [5] of the same molecule?
Its MBC range is 4 to 16 µg/mL.

What about the “isolates with MBC equivalent to the MIC” value [5] of the same molecule?
The value was 83.33%.

And the MIC50 (Streptococcus pneumoniae)?
The MIC50 was 4 µg/mL (≈ 12 µM).

What about the MIC90 (Streptococcus pneumoniae) of the same molecule?
The MIC90 was 4 µg/mL (≈ 12 µM).

What about the “effect of choline chloride in the media on growth” value (S. pneumoniae strain D39; 5% choline chloride, 48 hour, compared to positive and growth controls) of the same molecule?
Its value is “no significant difference in growth”.

And the “concentrations resulting in no bacterial growth for 48 hrs” value (S. pneumoniae strain D39; D39)?
Its value is at least 16 µg/mL.

And the “sub-inhibitory concentrations (growth similar to unexposed controls over 48 hour)” value (S. pneumoniae strain D39; D39)?
Its value is at most 2 µg/mL.

What about the “entered a log phase of growth at” value (S. pneumoniae strain D39; D39 treated with ≦4 μg/ml NCL812) of the same molecule?
The value was 6 hrs.
